# According to US20130302497A1, “Taste Enhancement” (Givaudan S.A., priority 2010, published 2013):
# Assay: Expert panel taste evaluation (umami/salty) in chicken broth with or without added choline chloride
# Format: in vivo
# Conditions: for Taste description, material alone: without choline chloride; for Taste description, with choline added: choline chloride 7 ppm final concentration
# Procedure: The materials described below were evaluated at the concentration specified by an expert panel in a chicken broth (commercial Swanson chicken broth, with no MSG added, 50% reduced sodium 430 mg/serving) with or without added choline chloride (7 ppm final concentration).
# [1] = 10 ppm in Swanson chicken broth, no MSG added, 50% reduced sodium
smiles,measurement,setting,value
"Cc1cc(O)c(C(=O)CCc2ccccn2)cc1C [1-(2-hydroxy-4,5-dimethylphenyl)-3-(pyridin-2-yl)propan-1-one]","Taste description, material alone",[1],Weak umami
same,"Taste description, with choline added",10 ppm in chicken broth,"Better, stronger umami, saltier"
CCCCCOc1ccc(C(=O)CCc2ccccn2)c(O)c1 [1-(2-hydroxy-4-(pentyloxy)phenyl)-3-(pyridine-2-yl)propan-1-one],"Taste description, with choline added",1 ppm in chicken broth,enhanced the saltiness and umami character with a well rounded taste profile
same,"Taste description, material alone",1 ppm in chicken broth,salty and umami
CC(C)COc1ccc(C(=O)CCc2ccccn2)c(O)c1 [1-(2-hydroxy-4-isobutoxyphenyl)-3-(pyridine-2-yl)propan-1-one],"Taste description, with choline added",1 ppm in chicken broth,enhanced the saltiness and umami character with a well rounded taste profile
same,"Taste description, material alone",1 ppm in chicken broth,Salty and umami
COc1ccc(C(=O)CCc2ccccn2)c(O)c1 [1-(2-hydroxy-4-methoxyphenyl)-3-(pyridin-2-yl)propan-1-one],"Taste description, material alone",[1],"Umami, lingering, body"
same,"Taste description, with choline added",10 ppm in chicken broth,"enhancement of umami, enhancement of saltiness"
"CC(C)=CCC/C(C)=C/CNC(=O)C1CC1 [(E)-N-(3,7-dimethylocta-2,6-dienyl)cyclopropanecarboxamide]","Taste description, with choline added",2 ppm in chicken broth,"Very full, more salty, umami"
same,"Taste description, material alone",2 ppm in chicken broth,"Umami, salty, not good aftertaste"
COc1cc(C)ccc1CNC(=O)C(=O)NCCc1ccccn1 [N-(2-methoxy-4-methylbenzyl)-N′-(2-(pyridin-2-yl)ethyl)oxalamide],"Taste description, with choline added",0.5 ppm in chicken broth,"more lingering umami, kokumi"
same,"Taste description, material alone",0.5 ppm in chicken broth,lingering umami
